Patent publication US8815811B2, “Peptides and methods for their preparation and use” (Eli Lilly and Company, priority 2010, dated 2014)
Where no end group is shown, it is not given here. [ ]: non-standard residue; d: D form. 1Nal = N[C@@H](Cc1cccc2ccccc12)C(=O)O; Aib = CC(C)(N)C(=O)O

Key:
hGlucR = molecular target: T1, hGlucR (Homo sapiens, UniProt P47871); assay: Glucagon receptor (hGlucR) binding assay (SPA, I-125 glucagon); settings: hGlucR 293HEK membranes
T1 construct: expressed in transfected cells; host or cells: 293HEK, Hygromycin-selected, phD expression plasmid
T1 sequence (P47871 26-477): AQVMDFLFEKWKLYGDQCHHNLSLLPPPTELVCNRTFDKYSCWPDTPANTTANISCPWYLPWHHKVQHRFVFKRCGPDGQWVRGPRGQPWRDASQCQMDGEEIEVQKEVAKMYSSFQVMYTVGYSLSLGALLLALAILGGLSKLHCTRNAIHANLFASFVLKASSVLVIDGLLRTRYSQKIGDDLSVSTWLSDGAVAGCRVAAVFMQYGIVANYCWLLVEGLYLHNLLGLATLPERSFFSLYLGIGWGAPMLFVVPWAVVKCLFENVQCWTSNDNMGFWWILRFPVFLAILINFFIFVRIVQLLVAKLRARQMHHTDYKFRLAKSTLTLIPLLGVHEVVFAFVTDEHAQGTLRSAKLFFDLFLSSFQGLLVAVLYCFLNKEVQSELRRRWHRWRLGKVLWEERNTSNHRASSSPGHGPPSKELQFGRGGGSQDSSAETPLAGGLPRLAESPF
Protocol: The hGlucR cDNA is subcloned into the expression plasmid phD (Trans-activated expression of fully gamma-carboxylated recombinant human protein C, an antithrombotic factor. Grinnell, B. W., et. al., Bio/Technology 5: 1189-1192 (1987)). This plasmid DNA is transfected into 293HEK cells and selected with 200 μg/mL Hygromycin.
Crude plasma membranes are prepared using cells from suspension culture. The cells are lysed on ice in hypotonic buffer containing 25 mM Tris HCl, pH 7.5, 1 mM MgCl2, DNAse1, 20 μ/mL, and Roche Complete™ Inhibitors without EDTA. The cell suspension is homogenized with a glass dounce homogenizer using a Teflon® pestle for 25 strokes. The homogenate is centrifuged at 4° C. at 1800×g for 15 minutes. The supernatant is collected and the pellet is resuspended in hypotonic buffer and rehomogenized. The mixture is centrifuged at 1800×g for 15 minutes. The second supernatant is combined with the first supernatant. […]
The binding buffer contains 25 mM 4-(2-hydroxyethyl)-1-piperazineethanesulfonic acid (HEPES), pH 7.4, 2.5 mM CaCl2, 1 mM MgCl2, 0.1% fatty acid free BSA, 0.003% Tween20, and Roche Complete™ Inhibitors without EDTA. […] Plates are read with a PerkinElmer Life and Analytical Sciences Trilux MicroBeta® scintillation counter after 12 hours of settling time at room temperature.
Results are calculated as a percent of specific I-125-glucagon binding in the presence of compound. […]

[1] = test system: diet-induced obese (DIO) mice; assay: Effects on food intake, body weight and body composition in DIO mice; type: in vivo; settings: for Fat mass loss (g fat weight change for 14 days) / Total food intake (g total for 14 days) / Overall weight loss (g weight change for 14 days): DIO mice
Protocol: Effects on Food Intake, Body Weight and Body Composition in Diet-Induced Obese (DIO) Mice
Three to four months old male diet-induced obese (DIO) mice are used. Animals are individually housed in a temperature-controlled (24° C.) facility with a 12 hour light/dark cycle (lights on 22:00), and have free access to food and water. After 2 weeks acclimation to the facility, mice are randomized to treatment groups (n=8-10/group) so that each group has similar mean body weight and fat mass. Before the experiment, mice are subcutaneously (sc) injected with vehicle solution and weighed for 7 days to acclimate them to the procedures.
Vehicle or peptide analog (dose range 10-100 nmol/Kg) dissolved in vehicle is administered by sc injection to ad libitum fed DIO mice 30-90 minutes prior to the onset of the dark cycle […] for 2 to 4 weeks. Body weight and the weight of food plus the hopper are measured at the same time. Food consumed in the last 24 hours is calculated by subtracting current weight of food plus the hopper from that of the previous day. Absolute changes in body weight are calculated by subtracting the body weight of the animal prior to the first injection. On days −1 and 14, total fat mass is measured by nuclear magnetic resonance (NMR) using an Echo Medical System (Houston, Tex.) instrument. Fat free mass is calculated by subtracting fat mass from total body weight.

DIO mice = assay: Oral glucose tolerance test after 2-week treatment in DIO mice; type: in vivo; settings: for Glucose AUC, MEAN: OGTT
Protocol: Fifty-six hours after the last injection of compound in the DIO study above the animals were subjected to an oral glucose tolerance test. In short, mice were fasted for 16 hours prior to the start of the glucose tolerance test. At time 0, animals are given 2 g/kg dextrose by oral gavage. Blood is collected by tail bleeding taken 0, 15, 30, 60 and 120 minutes after glucose challenge. Glucose concentration is measured by glucometer.

[2] = test system: diet-induced obese Long Evans rats; assay: Effects on food intake, body weight, body composition and plasma lipids in DIO Long Evans rats; type: in vivo
Protocol: Four to five months old male diet-induced obese Long Evans rats are used. Animals are individually housed in a temperature-controlled (24° C.) facility with a 12 hour light/dark cycle (lights on 22:00), and have free access to food (diet TD95217) and water. Animals are acclimated to the facility for at least 2 weeks. On day 0, body composition is determined by QNMR and rats are randomized to respective groups (n=6/group) based on body weight, % fat, and % lean mass. Compound is administered by subcutaneous injection on days 1, 4, 8, 11, and 15. […] After CO2 euthanasia, blood samples are taken by cardiac stick for analysis of exposure determination.

Normal male Wistar rats = assay: Intravenous glucose tolerance test in normal rats; type: in vivo; settings: IVGTT; for insulin AUC: 0 to 30 min
Protocol: Effects on Blood Glucose Excursion During an Intravenous Glucose Tolerance Test in Normal Rats
Normal male Wistar rats (225-250 g) are used in the study. Animals are randomized into groups based on fed body weight and blood glucose. Animals are injected with vehicle or peptide analog (dose 3-400 μg peptide content/kg) 16 hours prior to the start of the test. Food is removed at the time of injection. Prior to the assay the animals are put under anesthesia, Phenobarbital 65 mg/kg i.p., and two catheters are inserted, one in the jugular vein and the other in the carotid artery. At time 0, animals are given 0.5 g glucose/kg through the venous catheter. Blood is collected from the carotid artery at time 0 (pre glucose), 2, 4, 6, 10, 20 and 30 minutes after glucose challenge. Glucose concentration is measured by glucometer. Insulin is measured by Mesoscale®. Efficacy is measured as the increase in total area under the insulin curve (=integrated plasma insulin values from t+0 to 30 min) as well as the area under the glucose curve which is a measure of the glucose excursion following the intravenous glucose challenge.

Substance: Aib^2, Aib^13, Aib^29, Cys^43(PEG20K), Cys^44 (PEG20K)-GIP (Y[Aib]EGTFTSDYSI[Aib]LDKIAQRAFVQWLIA[Aib]KGKKQEWKHQITQC(PEG 20 kDa)C(PEG 20 kDa)-NH2) [Example 3, GIP analog PEGylated at Cys 43 and 44 with 20 kDa mPEG maleimide]
- Ki (hGlucR): > 7.89 µM
- cumulative food intake and body weight compared to vehicle-treated mice ([1]; 14-day DIO mouse studies, summary of Tables 6a and 6b): decreased
- Fat mass loss (g fat weight change for 14 days) ([1]; Table 6a, 30 nmol/Kg): -4.3 ± 0.3 g
- Total food intake (g total for 14 days) ([1]; Table 6a, 30 nmol/Kg): 26.5 ± 1.5 g
- Overall weight loss (g weight change for 14 days) ([1]; Table 6a, 30 nmol/Kg sc every 3 days): -5.5 ± 0.4 g
- Fat mass loss (g fat weight change for 14 days) ([1]; Table 6a, 100 nmol/Kg): -5.6 ± 0.2 g
- Total food intake (g total for 14 days) ([1]; Table 6a, 100 nmol/Kg): 23.4 ± 0.7 g
- Overall weight loss (g weight change for 14 days) ([1]; Table 6a, 100 nmol/Kg sc every 3 days): -7.0 ± 0.3 g
- glucose excursion following an oral glucose load (DIO mice; DIO mice, summary of Tables 7a and 7b): significantly reduced
- Glucose AUC, MEAN (DIO mice; Table 7a, 30 nmol/Kg): 10293 mg·min/dL
- Glucose AUC, MEAN (DIO mice; Table 7a, 100 nmol/Kg): 10892 mg·min/dL
- free fatty acids (plasma) ([2]; 10 nmol/Kg): 0.94 mEq/L
- total cholesterol (plasma) ([2]; 10 nmol/Kg): 91 mg/dL
- triglycerides (plasma) ([2]; 10 nmol/Kg): 262.1 mg/dL
- fat mass reduced ([2]; 10 nmol/Kg over 16 days): 1.3%
- lean mass increased ([2]; 10 nmol/Kg over 16 days): 0.6%
- free fatty acids (plasma) ([2]; 30 nmol/Kg): 1.01 mEq/L
- total cholesterol (plasma) ([2]; 30 nmol/Kg): 94 mg/dL
- triglycerides (plasma) ([2]; 30 nmol/Kg): 233.5 mg/dL
- fat mass reduced ([2]; 30 nmol/Kg over 16 days): 2.3%
- lean mass increased ([2]; 30 nmol/Kg over 16 days): 1.3%
- changes in body weight and body composition compared to vehicle-treated DIO rats ([2]; over 16 days): increasing the percentage of lean mass and decreasing the percentage of fat mass
- amount of free fatty acids ([2]; versus vehicle): increased
- amounts of plasma lipids, including triglycerides and total cholesterol ([2]; versus vehicle): lowered
- insulin AUC and glucose AUC compared to vehicle-treated rats (Normal male Wistar rats): increased insulin AUC and decreased glucose AUC
- glucose AUC (Normal male Wistar rats; 50 μg/Kg): 6780 mg·min/dL
- insulin AUC (Normal male Wistar rats; 50 μg/Kg 16 hours before test): 137 ng·min/mL
- glucose AUC (Normal male Wistar rats; 200 μg/Kg): 7020 mg·min/dL
- insulin AUC (Normal male Wistar rats; 200 μg/Kg 16 hours before test): 183 ng·min/mL

Substance: Aib^2, Aib^13, Nal^22, Aib^29, Cys^43(PEG20K), Cys^44 (PEG20K)-GIP [Example 5] (Y[Aib]EGTFTSDYSI[Aib]LDKIAQRA[1Nal]VQWLIA[Aib]KGKKQEWKHQITQCC-NH2; not fully specified (residues 43, 44); cysteine pairing not given here) [Nal22 GIP analog PEGylated at Cys 43 and 44 with 20 kDa mPEG iodoacetamide]
- Fat mass loss (g fat weight change for 14 days) ([1]; Table 6b, 10 nmol/Kg): -2.4 ± 0.3 g
- Overall weight loss (g weight change for 14 days) ([1]; Table 6b, 10 nmol/Kg): -3.2 ± 0.3 g
- Total food intake (g total for 14 days) ([1]; Table 6b, 10 nmol/Kg): 31.0 ± 1.0 g
- Fat mass loss (g fat weight change for 14 days) ([1]; Table 6b, 30 nmol/Kg): -3.6 ± 0.4 g
- Overall weight loss (g weight change for 14 days) ([1]; Table 6b, 30 nmol/Kg): -5.0 ± 0.4 g
- Total food intake (g total for 14 days) ([1]; Table 6b, 30 nmol/Kg): 26.7 ± 0.7 g
- Glucose AUC, MEAN (DIO mice; Table 7b, 10 nmol/Kg): 14332 mg·min/dL
- Glucose AUC, MEAN (DIO mice; Table 7b, 30 nmol/Kg): 12474 mg·min/dL
- glucose AUC (Normal male Wistar rats; 50 μg/Kg): 7202 mg·min/dL
- insulin AUC (Normal male Wistar rats; 50 μg/Kg 16 hours before test): 133 ng·min/mL
- glucose AUC (Normal male Wistar rats; 200 μg/Kg): 7351 mg·min/dL
- insulin AUC (Normal male Wistar rats; 200 μg/Kg 16 hours before test): 124 ng·min/mL
